Measured values taken from patent US20060148828A1, “Combination comprising a CDK inhibitor and a topoisomerase 1 inhibitor for the treatment of cancer and other proliferative diseases” (Cyclacel Limited, priority 2003, published 2006).
Several values for one entry are separate records, joined by “and”; a condition that tells them apart may be missing. Equal values may be shown once.

Legend:
[1] = system: wt-p53 HT29-A4 xenografts; assay: Antitumor effects on xenografts in nude mice; format: in vivo, Swiss nu/nu mice; conditions: for TGI, tumor growth inhibition: at sacrifice of first control mouse
[2] = system: HT29 colon tumor xenografts; assay: In vivo drug efficacy on xenografts in nude mice; set-up: species or system Swiss nu/nu mice; conditions: for CR nb (complete regression) / Cures nb (tumour-free mice at end) / PR nb (partial response): 9 mice; for TGI % (day): day 21; for Calc growth delay (TGD treated − TGD control): doses as in Treatment column; for Fraction T/C (treated RTV/control RTV × 100): mouse, in vivo
wt-p53 HT29-A4 cells [3] = assay: Western blot of apoptosis markers (PARP p85, cleaved caspase-3); format: cell-based, human; conditions: 1 μM CPT-11 for 72 h
wt-p53 HT29-A4 cells [4] = conditions: 1 μM CPT-11 for 72 h, synchronized cells
Experimental: (§1) Cells were maintained in DMEM medium supplemented with 10% fetal calf serum, and under continuous selection with geneticin for the wt-p53 HT29-A4 cell line.
(§2) Cells were synchronized in G0/G1 by serum starvation for 48 h. Addition of serum and fresh medium released cells from the block and promoted them to cycle. Cell cycle progression was analyzed by BrdU (5-bromo-2′-deoxiuridine; Sigma) incorporation as described (13).

wt-p53 HT29-A4 cells [5] = assay: Cell cycle progression (BrdU incorporation); conditions: 1 μM CPT-11, up to 36 h, G0/G1 synchronized cells
Experimental: as §1, §2

[6] = alone or in combination with chemotherapy, three to six 4-day cycles
in vivo = conditions: Swiss nu/nu, mouse, po
[7] = CPT-11 40 mg/kg/day i.p., 8 mice per group

In the case of CCc1c2c(nc3ccc(OC(=O)N4CCC(N5CCCCC5)CC4)cc13)-c1cc3c(c(=O)n1C2)COC(=O)[C@]3(O)CC [CPT-11, irinotecan], the “Growth delay (treated/control TGT difference)” value ([1]; CPT-11 10 mg/kg/day i.p.) is reported as 10 days, the “No. PR (partial response)” value ([1]; CPT-11 10 mg/kg/day i.p., 10 mice per group) is reported as 8 and the “TGI, tumor growth inhibition” value ([1]; CPT-11 10 mg/kg/day i.p.) is reported as 60%. For the same compound, the “Growth delay (treated/control TGT difference)” value ([1]; CPT-11 40 mg/kg/day i.p.) was 22 days, the “No. PR (partial response)” value [1, 7] was 7 and the “No. cures (tumor-free mice at end of experiment)” value [1, 7] was 1. For the same compound, the “TGI, tumor growth inhibition” value ([1]; CPT-11 40 mg/kg/day i.p., 40 mg/kg/day) was 87% and 86%, the “survival score of mice (tumors reaching 2000 mm3 as a function of time)” value ([1]; CPT-11 at both doses (10 and 40 mg/kg/day)) was “significantly increased the survival score” and the “CR nb (complete regression)” value [2] was 0. For the same compound, the “Cures nb (tumour-free mice at end)” value [2] was 0, the “PR nb (partial response)” value [2] was 0 and the “response of mut-p53 xenografts to CPT-11” value ([2]; CPT-11 10 and 40 mg/kg/day i.p., data not shown) was “no response”. For the same compound, the “TGI % (day)” value [2] was 61.6%, the Calc growth delay (TGD treated − TGD control) [2] was 12.6 days and the “Fraction T/C (treated RTV/control RTV × 100)” value [2] was 38.4. The “apoptosis (PARP p85 fragment, caspase-3 activation)” value (wt-p53 HT29-A4 cells [3]) was “increased apoptosis”, the “cell proliferation versus untreated cells and mut-p53 cells” value (wt-p53 HT29-A4 cells [4]) was “significantly decreased cell proliferation” and the cell cycle blockage (wt-p53 HT29-A4 cells [5]) was “blocked in early S phase”.

For CC[C@H](CO)Nc1nc(NCc2ccccc2)c2ncn(C(C)C)c2n1 [roscovitine, 6-benzylamino-2-[(R)-1-ethyl-2-hydroxyethylamino]-9-isopropylpurine], the “antitumour activity as single agent” value ([2]; 400 mg/kg/day for up to six weeks) was “did not show antitumour activity”, the “CR nb (complete regression)” value [2] was 0 and the “Cures nb (tumour-free mice at end)” value [2] was 0. The “PR nb (partial response)” value [2] was 0, the “TGI % (day)” value [2] was 30.4% and the Calc growth delay (TGD treated − TGD control) [2] was 3 days. The “Fraction T/C (treated RTV/control RTV × 100)” value [2] was 69.6, the tolerance [6] was “well tolerated” and the MTD (in vivo) was 400 mg/kg/day.
